Here are results for 3 compounds from paper PMC6770063, “Utilizing the Combination of Binding Kinetics and Micro-Pharmacokinetics Link in Vitro α-Glucosidase Inhibition to in Vivo Target Occupancy” (Biomolecules, 2019).

Experiment [1] concerns α-Glucosidase (Saccharomyces cerevisiae). In words: Binding kinetics by reaction progress curve analysis. The format is biochemical. The settings on record: for binding mechanism: kobs versus concentration hyperbolic; for Dissociation Half-Life: ln2 divided by koff (progress curve); for time dependence of inhibition: preincubation and progress curves; for Ki: read-out: Ki* (final equilibrium dissociation constant, true affinity). From the text: Progress curves were fitted to the equation (Equation (1)) described by Williams and Morrison to calculate kobs values for slow binding (i.e., time-dependent) inhibition. (1) A=vs×t+(vi−vs)(1−e^−kobs×t/kobs)+A0 where A is the absorbance; vi and vs are initial and steady-state velocities (expressed in A/time), respectively; t is time; kobs is the pseudo first order rate constant for the approach to steady-state and A0 is the initial blank absorbance at 405 nm. In order to determine inhibition modality and calculate inhibition constants obtained, steady-state rates from progress curves were subsequently fitted to the following steady-state velocity equation (Equation (2)) described by Robert A. Copeland [34] for noncompetitive inhibition:(2) v=vmax×[S]/[S]×(1+[I]/αKi)+Km×(1+[I]/Ki) where v is velocity; Vmax refers to the maximum velocity; [I] is concentration of inhibition; Km refers to Michaelis constant; α is constant.
(3) kobs=k4+(k3×[I]/Kiapp+[I]) (4) kon=k3/Ki (5) koff=k4 (6) Ki*=Ki/1+k3/k4 where k3 is forward enzyme isomerization rate constant; k4 is reverse enzyme isomerization rate constant, Ki^app is the apparent value of the Ki for the initial encounter complex. Ki was estimated using the following Cheng-prusoff equation (Equation (7)) as described previously for noncompetitive inhibition:(7) Kiapp=Ki×(1+[S]/Km)/((1+α)×([S]/Km))

For experiment [2] the test system is unchanged. Put plainly: Off-rate by rapid dilution approach. It counts as biochemical.
Protocol: Among these BK parameters, the off-rate value of acarbose was determined by applying the rapid dilution approaches, which were readily available from the references [35, 49].
The test system is the same in experiment [3]. In words: Mutual exclusivity study (Yonetani-Theorell). As to conditions: combination of ECG with EGCG, Equation (8). It counts as biochemical. Here is the method: Mutual exclusivity studies were performed by measuring the reaction velocity at several fixed concentrations of one investigated compound while titrating another tested compound with various concentrations, and data were evaluated by the method (Equation (8)) proposed by Yonetanii and Theorell that yielded a value of β for different noncompetitive inhibition by nonlinear regression analysis. (8) 1/vij=1/v0×(1+[I]/Ki+[J]/Kj+[I][J]/βKiKj) where vij is the enzyme velocity in the presence of both compounds at concentrations [I] and [J]; v0 is the velocity in the absence of compound; β is an interaction constant that defines the degree to which binding of one compound perturbs the affinity of the enzyme for the second compound.

Experiment [4] shares this test system. In words: Steady-state velocity fit and double reciprocal plot (inhibition type). The format is biochemical. As to conditions: for constant α: Equation (2), noncompetitive inhibition; for type of inhibition: double reciprocal plot; for Ki: steady-state velocity fit, read-out: free AGH binding inhibition constant (Ki). The method, then: The reaction progress of AGH inhibition by ECG was measured under the pseudo-first-order conditions ([I], initiated by the addition of 50 μL AGH to 300 μL of a mixture of tested compound and substrate and monitor the liberation of free pNP at 405 nm. The final pNPG concentrations ranged from 0.18 to 1.44 mM. The compound investigated concentrations were 0, 0.7, 1.4, 2.8, 5.6, 11.2 μM. The reading was recorded every 20 s during 4000 s and blank absorbance values were subtracted from the data before subsequent calculations. Similar experiments were performed with EGCG to measure its reaction progress curve. Progress curves were fitted to the equation (Equation (1)) described by Williams and Morrison to calculate kobs values for slow binding (i.e., time-dependent) inhibition. (1) A=vs×t+(vi−vs)(1−e^−kobs×t/kobs)+A0 where A is the absorbance; vi and vs are initial and steady-state velocities (expressed in A/time), respectively; t is time; kobs is the pseudo first order rate constant for the approach to steady-state and A0 is the initial blank absorbance at 405 nm. In order to determine inhibition modality and calculate inhibition constants obtained, steady-state rates from progress curves were subsequently fitted to the following steady-state velocity equation (Equation (2)) described by Robert A. Copeland [34] for noncompetitive inhibition:(2) v=vmax×[S]/[S]×(1+[I]/αKi)+Km×(1+[I]/Ki) where v is velocity; Vmax refers to the maximum velocity; [I] is concentration of inhibition; Km refers to Michaelis constant; α is constant.
The inhibition type of the tested compounds against AGH was determined using a double reciprocal plot of 1/v as a function of 1/[S] in terms of intersecting lines converging to the location of the y-axis and the x-axis.

In experiment [5] the target is α-Glucosidase (Saccharomyces cerevisiae). In words: IC50 determination, AGH enzyme inhibition assay (pNPG substrate). The format is biochemical. As to conditions: 15 min preincubation at 37 °C, 0.36 mM pNPG, mean ± SEM of three experiments. Here is the method: Steady-state kinetic studies were carried out on a Multiskan FC Devices. The AGH activity was assayed by adding 50 μL of AGH solution to 300 μL of substrate solution (pNPG was used as the substrate) in 0.1 M PBS buffer (pH 6.8), followed by incubation at 37 °C for 30 min. The AGH activity was measured by monitoring an increase of the p-nitrophenol (pNP) released from substrate pNPG in absorbance at 405 nm.
AGH was preincubated with two tea polyphenols for 15 min at 37 °C, respectively. The reaction was started by the addition of the pNPG (0.36 mM final concentration), and the initial rate was measured by ultraviolet (UV) detector. Linearity of UV response was confirmed with correlation coefficients (R^2) of > 0.99. Data were the means ± standard error of the mean (SEM) of three independent experiments, and were fitted using standard four-parameter logistic models to measure IC50 values by JMP software (version 11.0.0, SAS Institute, Inc., Cary, NC, USA).

Experiment [6] concerns α-Glucosidase (Saccharomyces cerevisiae). Put plainly: Surface plasmon resonance (SPR) binding kinetics, immobilized AGH. The settings on record: 25 °C, 1:1 Langmuir model. Here is the method:
Surface plasmon resonance (SPR) experiments were performed to measure the BK parameters between compounds and AGH. After the activation of the surface using NHS and EDC (1:1, v/v), the AGH was immobilized on a CM5 sensor chip (GE healthcare) by using standard amine-coupling at 25 °C with running buffer PBS-P (20 mM phosphate buffer, […], 0.05% surfactant P-20, pH 7.4). The AGH concentration was fixed at 50 ng/µL and the immobilization level of AGH was about 8000 RU (response unit, 1 RU response value is roughly equivalent to 1 pg/mm^2 change of the concentration of the bound substance on the chip surface). After coupling, unreacted NHS ester groups were blocked with ethanolamine. Different concentrations of compounds containing 5% DMSO were serially injected into the channel to evaluate the BK parameters. A reference channel was only activated and blocked to eliminate compound unspecific binding to the surface of the chip. An extra wash with 50% DMSO was added to remove the last remaining sample in the pipeline. The on-rates and the off-rates of the compounds were obtained by fitting the data sets to 1:1 Langmuir binding model using the Biacore T200 Evaluation Software (GE Healthcare).

Setting [7] is: progress curve analysis, two-step induced-fit model.

In the case of `C[C@H]1O[C@H](O[C@H]2[C@H](O)[C@@H](O)[C@@H](O[C@H]3[C@H](O)[C@@H](O)C(O)O[C@@H]3CO)O[C@@H]2CO)[C@H](O)[C@@H](O)[C@@H]1N[C@H]1C=C(CO)[C@@H](O)[C@H](O)[C@H]1O` (some centres unmarked) [Acarbose, acarbose], the on-rate constant (kon) (in general, the rate constant with which the complex forms) in experiment [1] (acarbose, Supplementary Table S2) was 2.1 ± 0.3 10^6 M^−1s^−1. Besides, the “Dissociation Half-Life” value in experiment [2] (ln2 divided by koff (rapid dilution)) amounted to 606 min. For the same compound, the koff – broadly, a measure of how fast the partners let go of each other – in experiment [2] (rapid dilution approach) is on record as 1.9 ± 0.2 10^−5 s^−1.
Turning to `O=C(O[C@@H]1Cc2c(O)cc(O)cc2O[C@@H]1c1ccc(O)c(O)c1)c1cc(O)c(O)c(O)c1` [ECG, Epicatechin gallate], in experiment [3], the “β-value (interaction constant)” value is 4133197. Moreover, in experiment [1], the binding mechanism entry was “two-step induced-fit mechanism”, the “Dissociation Half-Life” value was determined as 7.2 min and the “time dependence of inhibition” value is recorded as “slow binding inhibitor”. In experiment [1] (setting [7]), the koff is on record as 1.6 ± 0.3 10^−3 s^−1 and the association rate constant (kon) is 0.2 ± 0.05 10^3 M^−1s^−1. Further, the inhibitory constant (Ki) – broadly, the equilibrium dissociation constant of an inhibitor or competing ligand from its target – in experiment [1] (progress curve analysis) was 1000 ± 300 nM. Moreover, in experiment [4], the “constant α” value is 1.3, the type of inhibition result is “noncompetitive inhibitor” and the Ki stood at 1100 nM. Also, in experiment [5], the 50% inhibitory concentration (IC50) (commonly the concentration that inhibits the measured activity by half) came to 1500 ± 300 nM. In addition, in experiment [6], the koff came to 0.0073 s⁻¹ and the kon was 6300 M⁻¹ s⁻¹.
`O=C(O[C@@H]1Cc2c(O)cc(O)cc2O[C@@H]1c1cc(O)c(O)c(O)c1)c1cc(O)c(O)c(O)c1` [EGCG, epigallocatechin gallate]: the “β-value (interaction constant)” value in experiment [3] amounted to 4133197. Further, in experiment [1], the binding mechanism entry was “two-step induced-fit mechanism”, the “Dissociation Half-Life” value came out at 6 min and the “time dependence of inhibition” value was “slow binding inhibition”. For the same compound, in experiment [1] (setting [7]), the koff is listed as 1.9 ± 0.2 10^−3 s^−1 and the on-rate constant (kon) is on record as 2.4 ± 0.3 10^3 M^−1s^−1. The Ki in experiment [1] (progress curve analysis) was 160 ± 30 nM. Besides, in experiment [4], the “constant α” value worked out at 5.6, the type of inhibition result is recorded as “noncompetitive inhibitor” and the inhibition constant Ki stood at 200 nM. Moreover, the IC50 in experiment [5] was found to be 410 ± 100 nM. In experiment [6], this compound came in with an off-rate (koff) of 0.0038 s⁻¹ and an on-rate (kon) of 5700 M⁻¹ s⁻¹.
